Experimental data: patent US9963482B2, “Phosphatidylinositol-3-kinase inhibitor and pharmaceutical composition” (Tohoku University, priority 2011, dated 2018)
pIC50: −log10 of the molar value. Read-outs that look alike come from different tables or passages of the source. Values belong to the compound of their own block, whether it stands above or below them.

Columns and labels:
[1] = test system: AKT pathway in PC3 (prostate cancer) cells; experiment: AKT pathway inhibition by Western blotting in PC3 cells; type: cell-based, human; settings: for expression level of phosphorylated AKT (Ser-473, Thr-308) over time: 5 to 180 minutes
Description: PC3 cells were obtained from Cell Resource Center for Medical Research of Institute of Development, Aging, and Cancer, Tohoku University. The cells were cultured at 37° C. in the presence of 5% CO2 by using RPMI1640 medium containing inactivated fetal bovine serum at the concentration of 10%.
Western blotting was performed as follows. Various kinds of the cells treated with each compound were collected and lysed in a lysis buffer (500 mM Tris-HCl pH 7.5, 100 mM NaCl, 2 mM EDTA, 1 mM sodium orthovanadate, 1% NP-40, and 1% protease inhibitor cocktail, manufactured by SIGMA-ALDRICH). After centrifugation, the supernatants were collected.
The followings were used as primary antibodies.
As a secondary antibody, “Alexa Fluor680IgG” (trade name, manufactured by Invitrogen) was used. By using “Odyssey Infrared Imaging System” (trade name, manufactured by LI-COR), expression of the protein of interest was determined.

HCT116 cells [2] = experiment: Western blotting for apoptosis, AKT and histone acetylation in HCT116 cells; type: cell-based, human; settings: HCT116, 24 hours, 5 μM
Description: With regard to Western blotting, HCT116 cells were treated for 24 hours with SAHA or FK-228 at predetermined concentrations, and then the expression of PARP, cleaved PARP, phosphorylated AKT (S473), AKT, acetylated histone H3, and acetylated histone H4 was analyzed.

HCT116 cells [3] = experiment: FACS cell cycle analysis in HCT116 cells; type: cell-based, human; settings: HCT116, 24 hours; SAHA 2.5 μM, LY294002 50 μM, FK228 or FK-A5 at low concentration
Description: The cells were collected, fixed with ethanol, stained with iodopropidium/PBS solution, and analyzed by using “Cytomics FC500 Flow Cytometry System” (trade name, manufactured by Beckman Coulter). The cell cycle fractions were calculated by using “Multicycle software” (trade name, manufactured by Phenomix Flow Systems).

PI3K (p110α/p85α) = target: T1, PI3K (p110α/p85α) (Homo sapiens, UniProt P42336); experiment: In vitro PI3K inhibitory activity by mobility shift assay (Carna Biosciences); type: biochemical; settings: for PI3K activity inhibitory rate: compound 20 μM, 50 μM ATP
T1 construct: purchased Carna Biosciences, Inc. (Kobe); contract measurement
Description: The PI3K (p110α/p85α) inhibitory activity was evaluated at Carna Biosciences, Inc. (Kobe) by mobility shift assay which included isolation and quantification of a substrate and the phosphorylated substrate based on the mobility in a capillary (https://www.carnabio.com/japanese/product/search.cgi?mode=profiling). […] After allowing the reaction to occur for 5 hours at room temperature, the mobility shift assay was performed. The test was performed in duplicate.
Inhibition rate was calculated as follows.
The value of product/substrate+product when an agent was added thereto was calculated similarly, and the inhibition rate was calculated based on a difference from the control value.

[4] = target: T2, human p110α expressed in budding yeast (Homo sapiens, UniProt P42336); experiment: Screening of PI3K inhibitor using budding yeast (recovery from cell proliferation disorder caused by p110α); type: cell-based; settings: AD1-9 transformant expressing p110α, compound 5 μM, 24 hours, average of three tests
T2 construct: expressed in transfected cells; host or cells: Saccharomyces cerevisiae AD1-9 (LEU2-disrupted), galactose-induced
Description: AD1-9 strain can be obtained from Nader Nourizad (Stanford Genome Technology Center Stanford University, CA, USA).
The transformed AD 1-9 strain was cultured at 30° C. in a minimal complete medium SC-U-L containing no uracil and leucine or SGal-U-L in which 2% glucose was replaced with 2% galactose.
By using the aforementioned system, screening of the compound library, which was obtained from the Screening committee of anticancer drugs supported by grant-in-aid for scientific research on priority area “Cancer” from Ministry of Education, Culture, Sports, Science, and Technology, Japan, was performed. Each compound was added to SGal-U-L liquid medium to constitute a concentration of 0.5 μM or 5 μM and the transformant of AD 1-9 was cultured for 24 hours under shaking. Thereafter, A600 was measured. […] Three independent tests were repeatedly performed to calculate the average value of A600.

HDAC6 = target: T3, HDAC6 (Homo sapiens, UniProt Q9UBN7); settings: Table 2; cited from earlier work
T3 sequence (Q9UBN7 1-1215): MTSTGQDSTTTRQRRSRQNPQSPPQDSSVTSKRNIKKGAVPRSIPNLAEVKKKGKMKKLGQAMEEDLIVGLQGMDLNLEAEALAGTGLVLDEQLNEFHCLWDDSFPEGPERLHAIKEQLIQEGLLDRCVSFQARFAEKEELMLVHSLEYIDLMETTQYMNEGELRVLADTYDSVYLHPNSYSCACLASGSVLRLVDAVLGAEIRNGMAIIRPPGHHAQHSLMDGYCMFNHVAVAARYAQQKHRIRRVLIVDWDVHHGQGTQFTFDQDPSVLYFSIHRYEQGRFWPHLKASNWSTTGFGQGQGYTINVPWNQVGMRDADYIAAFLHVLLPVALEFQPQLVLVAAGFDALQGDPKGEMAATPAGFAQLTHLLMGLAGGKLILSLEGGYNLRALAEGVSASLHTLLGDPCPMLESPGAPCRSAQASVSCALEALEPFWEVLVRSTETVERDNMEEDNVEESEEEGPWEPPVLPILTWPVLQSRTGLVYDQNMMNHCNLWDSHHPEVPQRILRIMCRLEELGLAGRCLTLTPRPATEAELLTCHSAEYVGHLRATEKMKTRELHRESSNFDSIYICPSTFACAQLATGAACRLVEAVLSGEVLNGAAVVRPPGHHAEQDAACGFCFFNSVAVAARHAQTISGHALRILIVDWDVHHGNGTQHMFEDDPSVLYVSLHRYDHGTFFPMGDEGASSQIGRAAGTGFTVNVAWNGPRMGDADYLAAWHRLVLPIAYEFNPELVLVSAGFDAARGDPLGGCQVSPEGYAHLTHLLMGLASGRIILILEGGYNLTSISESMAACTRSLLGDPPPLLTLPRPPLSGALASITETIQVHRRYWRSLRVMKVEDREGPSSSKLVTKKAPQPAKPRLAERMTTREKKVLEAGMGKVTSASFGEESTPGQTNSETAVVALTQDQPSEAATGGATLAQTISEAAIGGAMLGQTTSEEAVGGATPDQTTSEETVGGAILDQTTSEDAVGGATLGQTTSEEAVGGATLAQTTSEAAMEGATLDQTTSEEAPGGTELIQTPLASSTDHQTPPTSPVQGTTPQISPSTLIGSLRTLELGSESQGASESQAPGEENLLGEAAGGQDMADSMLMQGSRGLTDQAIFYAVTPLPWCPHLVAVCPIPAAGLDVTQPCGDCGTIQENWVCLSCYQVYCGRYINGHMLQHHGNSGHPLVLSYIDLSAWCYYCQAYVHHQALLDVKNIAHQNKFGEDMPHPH

HDAC1 = HDAC1 (Homo sapiens, UniProt Q13547); settings: Table 2; cited from earlier work
[5] = Table 3, PI3K (p110α/p85α), read-out: PI3K IC50

Chain of HDAC1 (Q13547 whole entry, species assumed): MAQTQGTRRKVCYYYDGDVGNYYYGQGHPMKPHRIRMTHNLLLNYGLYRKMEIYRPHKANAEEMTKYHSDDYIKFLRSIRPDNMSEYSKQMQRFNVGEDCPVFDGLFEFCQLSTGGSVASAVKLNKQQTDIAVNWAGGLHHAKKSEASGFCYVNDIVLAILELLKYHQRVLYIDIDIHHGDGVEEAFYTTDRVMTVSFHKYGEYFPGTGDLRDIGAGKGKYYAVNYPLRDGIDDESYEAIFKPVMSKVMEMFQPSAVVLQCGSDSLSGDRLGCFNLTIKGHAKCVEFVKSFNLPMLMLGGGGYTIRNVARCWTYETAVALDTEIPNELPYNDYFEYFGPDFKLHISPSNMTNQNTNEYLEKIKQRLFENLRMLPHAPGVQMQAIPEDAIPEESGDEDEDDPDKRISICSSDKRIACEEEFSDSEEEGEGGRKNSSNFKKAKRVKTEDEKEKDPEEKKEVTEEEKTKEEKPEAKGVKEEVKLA
T1 sequence (P42336 whole entry): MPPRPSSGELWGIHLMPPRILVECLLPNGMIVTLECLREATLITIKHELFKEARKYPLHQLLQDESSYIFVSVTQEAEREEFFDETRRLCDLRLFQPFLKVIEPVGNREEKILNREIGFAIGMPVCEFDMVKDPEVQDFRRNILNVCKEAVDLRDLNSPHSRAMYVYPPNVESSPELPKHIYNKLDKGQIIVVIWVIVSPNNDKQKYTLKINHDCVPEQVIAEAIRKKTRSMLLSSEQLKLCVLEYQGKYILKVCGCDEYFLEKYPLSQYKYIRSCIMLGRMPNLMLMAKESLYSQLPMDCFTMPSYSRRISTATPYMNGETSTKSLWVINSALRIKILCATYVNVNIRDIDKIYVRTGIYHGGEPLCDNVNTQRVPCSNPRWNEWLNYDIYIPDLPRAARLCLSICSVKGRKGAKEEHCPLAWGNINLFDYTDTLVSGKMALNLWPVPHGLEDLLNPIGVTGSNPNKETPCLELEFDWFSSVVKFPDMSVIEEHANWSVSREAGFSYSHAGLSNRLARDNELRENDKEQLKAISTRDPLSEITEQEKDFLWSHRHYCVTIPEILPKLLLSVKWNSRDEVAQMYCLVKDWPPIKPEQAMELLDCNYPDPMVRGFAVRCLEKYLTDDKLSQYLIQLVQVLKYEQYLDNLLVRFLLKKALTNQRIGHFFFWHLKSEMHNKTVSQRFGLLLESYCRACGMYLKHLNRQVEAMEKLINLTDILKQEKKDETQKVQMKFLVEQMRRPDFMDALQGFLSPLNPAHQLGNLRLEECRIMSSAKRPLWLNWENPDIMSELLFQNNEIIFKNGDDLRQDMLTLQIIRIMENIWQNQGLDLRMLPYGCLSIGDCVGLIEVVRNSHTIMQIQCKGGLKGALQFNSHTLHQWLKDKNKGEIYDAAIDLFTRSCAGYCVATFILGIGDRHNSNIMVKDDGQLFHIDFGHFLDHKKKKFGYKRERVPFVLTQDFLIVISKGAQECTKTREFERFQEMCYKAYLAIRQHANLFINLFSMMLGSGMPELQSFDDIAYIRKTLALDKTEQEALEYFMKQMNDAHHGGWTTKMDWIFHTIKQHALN
T1 sequence (P27986 whole entry partner): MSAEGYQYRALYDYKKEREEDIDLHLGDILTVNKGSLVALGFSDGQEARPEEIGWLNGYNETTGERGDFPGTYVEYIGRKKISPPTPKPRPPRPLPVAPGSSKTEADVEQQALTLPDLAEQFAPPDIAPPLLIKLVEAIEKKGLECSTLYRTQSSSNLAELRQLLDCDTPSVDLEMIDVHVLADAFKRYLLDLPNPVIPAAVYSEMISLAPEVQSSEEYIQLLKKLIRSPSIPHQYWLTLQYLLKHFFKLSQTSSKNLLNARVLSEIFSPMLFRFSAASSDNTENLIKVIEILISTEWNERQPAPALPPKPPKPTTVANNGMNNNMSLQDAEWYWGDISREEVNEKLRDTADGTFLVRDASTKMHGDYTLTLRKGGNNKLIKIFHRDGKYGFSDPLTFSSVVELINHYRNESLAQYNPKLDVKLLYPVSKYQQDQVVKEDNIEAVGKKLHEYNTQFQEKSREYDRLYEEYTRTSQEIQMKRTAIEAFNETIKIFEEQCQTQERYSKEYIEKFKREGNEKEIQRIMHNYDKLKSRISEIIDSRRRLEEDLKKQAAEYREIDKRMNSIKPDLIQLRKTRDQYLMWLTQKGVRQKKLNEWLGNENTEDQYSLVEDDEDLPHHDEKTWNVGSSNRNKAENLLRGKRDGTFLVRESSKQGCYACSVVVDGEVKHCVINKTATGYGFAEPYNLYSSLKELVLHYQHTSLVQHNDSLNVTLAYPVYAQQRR
T2 sequence (P42336 whole entry): as the sequence (P42336 whole entry) above

A600 [4]: 0.482
SMILES: O=c1cc(N2CCOCC2)oc2c(-c3ccccc3)cccc12 [LY294002]
expression level of phosphorylated AKT (Ser-473, Thr-308) over time ([1]; 10 μM): lowered the expression level of phosphorylated AKT (Ser-473, Thr-308)
cell cycle arrest (HCT116 cells [3]): induced arrest of G0/G1 phase

A600 [4]: 0.412
SMILES: CC(C)C1NC(=O)C2CSSCC/C=C/C(CC(=O)N[C@H](C)C(=O)N2)OC(=O)C[C@@H]1O (some centres unmarked) [SP-1, spiruchostatin A]
pIC50 (HDAC6): 5.80
pIC50 (HDAC1): 8.48

A600 [4]: 0.464
SMILES: CC[C@@H](C)C1NC(=O)C2CSSCC/C=C/C(CC(=O)N[C@H](C)C(=O)N2)OC(=O)C[C@@H]1O (stereo partly drawn) [SP-3, 5″-epi-spiruchostatin B]
pIC50 (HDAC6): 5.41
pIC50 (HDAC1): 8.62

PI3K activity inhibitory rate (PI3K (p110α/p85α)): higher inhibition rate than FK228
SMILES: CC(C)[C@H]1NC(=O)C2CSSCC/C=C/C(CC(=O)N[C@H](C(C)C)C(=O)N2)OC(=O)C[C@@H]1O (some centres unmarked) [SP-5, spiruchostatin D]

Second part, the compound before the results:

SMILES: C/C=C1\NC(=O)[C@H]2CSSCC/C=C/[C@H](CC(=O)N[C@H](C(C)C)C(=O)N2)OC(=O)[C@H](C(C)C)NC1=O [FK228, romidepsin]
expression level of phosphorylated AKT (Ser-473, Thr-308) over time ([1]; 10 μM): lowered the expression level of phosphorylated AKT (Ser-473, Thr-308)
lowering of expression level of phosphorylated AKT (S473) compared to control ([1]; 10 μM, 180 minutes): 66%
lowering of expression level of phosphorylated AKT (T308) compared to control ([1]; 10 μM, 180 minutes): 86%
phosphorylated ERK1/2 ([1]; 180 minutes): slightly inhibited
phosphorylated MEK1/2 ([1]; 180 minutes): not inhibited
expression levels of phosphorylated AKT, GSK-3β, mTOR, p70S6K and 4E-BP1 ([1]; 180 minutes, varying concentration): inhibited in a concentration dependent manner
Cleaved PARP (HCT116 cells [2]): increased most
expression of acetylated histone (HCT116 cells [2]): enhanced the expression of acetylated histone
phosphorylated AKT (HCT116 cells [2]): inhibited the phosphorylated AKT
cell cycle arrest (HCT116 cells [3]): induced cell cycle arrest, predominantly at G2/M phase
pIC50 (PI3K (p110α/p85α); high ATP concentration (500 μM), read-out: IC50 for PI3K): 3.90
inhibition at 10 µM (PI3K (p110α/p85α); read-out: inhibition rate in the PI3K inhibition curve): 6.5%
pIC50 (PI3K (p110α/p85α); standard ATP concentration (50 μM), read-out: IC50 for PI3K): 4.24
A600 [4]: 0.385

SMILES: C/C=C1\NC(=O)C2CSSCC/C=C/C(CC(=O)N[C@H](C(C)C)C(=O)N2)OC(=O)CNC1=O (some centres unmarked) [FK-A1]
pIC50 (HDAC6): 5.49
pIC50 (HDAC1): 8.11

SMILES: CC(C)C1NC(=O)CC2/C=C/CCSSCC(NC1=O)C(=O)NCC(=O)NCC(=O)O2 (centres unmarked) [FK-A2]
pIC50 (HDAC6): 5.32
pIC50 (HDAC1): 7.35

SMILES: CC(C)C1NC(=O)CC2/C=C/CCSSCC(NC1=O)C(=O)N[C@H](C)C(=O)NCC(=O)O2 (some centres unmarked) [FK-A3]
pIC50 (HDAC6): 5.49
PI3K activity inhibitory rate (PI3K (p110α/p85α)): higher inhibition rate than FK228
A600 [4]: 0.380
pIC50 (HDAC1): 8.38

SMILES: CC(C)[C@H]1NC(=O)CC2/C=C/CCSSCC(NC1=O)C(=O)N[C@@H](C)C(=O)NCC(=O)O2 (some centres unmarked) [FK-A4]
pIC50 (HDAC6): 5.68
pIC50 (HDAC1): 6.47

SMILES: CC(C)[C@H]1NC(=O)CC2/C=C/CCSSCC(NC1=O)C(=O)N[C@@H](Cc1ccccc1)C(=O)NCC(=O)O2 (some centres unmarked) [FK-A6]
pIC50 (HDAC6): 5.54
PI3K activity inhibitory rate (PI3K (p110α/p85α)): higher inhibition rate than FK228
pIC50 (HDAC1): 7.72

SMILES: CC(C)C[C@H]1NC(=O)C2CSSCC/C=C/C(CC(=O)N[C@H](C(C)C)C(=O)N2)OC(=O)CNC1=O (some centres unmarked) [FK-A7]
pIC50 (PI3K (p110α/p85α); [5]): 4.49

SMILES: CC(C)C[C@@H]1NC(=O)C2CSSCC/C=C/C(CC(=O)N[C@H](C(C)C)C(=O)N2)OC(=O)CNC1=O (some centres unmarked) [FK-A8]
pIC50 (PI3K (p110α/p85α); [5]): 4.35

SMILES: CC(C)[C@H]1NC(=O)CC2/C=C/CCSSCC(NC1=O)C(=O)N[C@H](Cc1ccc(O)cc1)C(=O)NCC(=O)O2 (some centres unmarked) [FK-A9]
pIC50 (PI3K (p110α/p85α); [5]): 4.85

SMILES: COc1ccc(C[C@H]2NC(=O)C3CSSCC/C=C/C(CC(=O)N[C@H](C(C)C)C(=O)N3)OC(=O)CNC2=O)cc1 (some centres unmarked) [FK-A10]
pIC50 (PI3K (p110α/p85α); [5]): 4.57

SMILES: CC(C)[C@H]1NC(=O)CC2/C=C/CCSSCC(NC1=O)C(=O)N[C@@H](Cc1cccc3ccccc13)C(=O)NCC(=O)O2 (some centres unmarked) [FK-A12]
pIC50 (PI3K (p110α/p85α); [5]): 5.14

SMILES: CC(C)[C@H]1NC(=O)CC2/C=C/CCSSCC(NC1=O)C(=O)N[C@H](Cc1ccc3ccccc3c1)C(=O)NCC(=O)O2 (some centres unmarked) [FK-A13]
pIC50 (PI3K (p110α/p85α); [5]): 5.07

SMILES: CC(C)[C@H]1NC(=O)CC2/C=C/CCSSCC(NC1=O)C(=O)N[C@H](Cc1ccc(F)cc1)C(=O)NCC(=O)O2 (some centres unmarked) [FK-A17]
pIC50 (PI3K (p110α/p85α); [5]): 4.69

SMILES: O=C(CCCCCCC(=O)Nc1ccccc1)NO [SAHA, suberoyl anilide hydroxamic acid]
cell cycle arrest (HCT116 cells [3]): induced arrest of G2/M phase

SMILES: CC[C@H](C)C1NC(=O)C2CSSCC/C=C/C(CC(=O)N[C@H](C)C(=O)N2)OC(=O)C[C@@H]1O (some centres unmarked) [SP-2, spiruchastatin B]
pIC50 (HDAC6): 5.85
pIC50 (HDAC1): 8.66
